Patent US20260234129A1, “NOVEL IMIDAZOLE DERIVATIVE AND USE THEREOF” (PELEMED CO., LTD., priority 2023, published 2026)

Key:
Assay in all cases: scanMax kinase panel (Eurofins)
Type in all cases: binding
[1] = target: T1, ABL1(F317L)-phosphorylated (Homo sapiens, UniProt P00519, F317L); details: read-out: % control
T1 construct: purchased Eurofins
Procedure: (§1) The following assay method was performed to evaluate the inhibitory activities of a compound according to the present invention with respect to various enzymes. […] The compound was applied to the enzyme at a concentration of 1 μM, dissolved in DMSO, and the % control was determined according to Equation 1 below.
(§2) Here, the positive control refers to a compound corresponding to 0% control, and the negative control refers to a compound corresponding to 100% control.

[2] = target: T2, ABL1(Q252H)-phosphorylated (Homo sapiens, UniProt P00519, Q252H); details: read-out: % control
T2 construct: purchased Eurofins
Procedure: as §1, §2

CDK2 = target: T3, CDK2 (Homo sapiens, UniProt P24941); details: CDK2, 1 μM; read-out: % control
T3 construct: purchased Eurofins
Procedure: as §1, §2

CDK3 = target: T4, CDK3 (Homo sapiens, UniProt Q00526); details: CDK3, 1 μM; read-out: % control
T4 construct: purchased Eurofins
Procedure: as §1, §2

CDK7 = target: T5, CDK7 (Homo sapiens, UniProt P50613); details: CDK7, 1 μM; read-out: % control
T5 construct: purchased Eurofins scanMax® kinase panel
Procedure: as §1, §2

HIPK1 = target: T6, HIPK1 (Homo sapiens, UniProt Q86Z02); details: HIPK1, 1 μM; read-out: % control
T6 construct: purchased Eurofins scanMax® kinase panel
Procedure: as §1, §2

KIT(L576P) = target: T7, KIT(L576P) (Homo sapiens, UniProt P10721, L576P); details: read-out: % control
T7 construct: purchased Eurofins
Procedure: as §1, §2

KIT(V559D) = target: T8, KIT(V559D) (Homo sapiens, UniProt P10721, V559D); details: read-out: % control
T8 construct: purchased Eurofins
Procedure: as §1, §2

KIT(V559D, V654A) = target: T9, KIT(V559D, V654A) (Homo sapiens, UniProt P10721, V559D/V654A); details: read-out: % control
T9 construct: purchased Eurofins
Procedure: as §1, §2

PAK4 = target: T10, PAK4 (Homo sapiens, UniProt O96013); details: PAK4, 1 μM; read-out: % control
T10 construct: purchased Eurofins scanMax kinase panel
Procedure: as §1, §2

PAK6 = target: T11, PAK6 (Homo sapiens, UniProt Q9NQU5); details: PAK6, 1 μM; read-out: % control
T11 construct: purchased Eurofins scanMax kinase panel
Procedure: as §1, §2

PIM1 = target: T12, PIM1 (Homo sapiens, UniProt P11309); details: PIM1, 1 μM; read-out: % control
T12 construct: purchased Eurofins scanMax kinase panel
Procedure: as §1, §2

PIM2 = target: T13, PIM2 (Homo sapiens, UniProt Q9P1W9); details: PIM2, 1 μM; read-out: % control
T13 construct: purchased Eurofins scanMax kinase panel
Procedure: as §1, §2

RET = target: T14, RET (Homo sapiens, UniProt P07949); details: read-out: % control
T14 construct: purchased Eurofins scanMax kinase panel
Procedure: as §1, §2

RET(M918T) = target: T15, RET(M918T) (Homo sapiens, UniProt P07949, M918T); details: read-out: % control
T15 construct: purchased Eurofins scanMax kinase panel
Procedure: as §1, §2

TRKB = target: T16, TRKB (Homo sapiens, UniProt Q16620); details: read-out: % control
T16 construct: purchased Eurofins scanMax kinase panel
Procedure: as §1, §2

TRKC = target: T17, TRKC (Homo sapiens, UniProt Q16288); details: read-out: % control
T17 construct: purchased Eurofins scanMax kinase panel
Procedure: as §1, §2

T5 sequence (P50613 whole entry): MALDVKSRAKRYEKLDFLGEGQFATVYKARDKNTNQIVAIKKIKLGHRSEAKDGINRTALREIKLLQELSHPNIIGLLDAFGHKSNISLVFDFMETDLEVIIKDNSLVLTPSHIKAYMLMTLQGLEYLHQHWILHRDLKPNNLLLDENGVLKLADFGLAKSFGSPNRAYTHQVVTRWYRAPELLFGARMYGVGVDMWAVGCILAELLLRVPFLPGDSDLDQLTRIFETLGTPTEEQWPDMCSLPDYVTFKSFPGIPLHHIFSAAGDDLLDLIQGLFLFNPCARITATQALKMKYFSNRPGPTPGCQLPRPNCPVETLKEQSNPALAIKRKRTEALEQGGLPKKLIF
T11 sequence (Q9NQU5 whole entry): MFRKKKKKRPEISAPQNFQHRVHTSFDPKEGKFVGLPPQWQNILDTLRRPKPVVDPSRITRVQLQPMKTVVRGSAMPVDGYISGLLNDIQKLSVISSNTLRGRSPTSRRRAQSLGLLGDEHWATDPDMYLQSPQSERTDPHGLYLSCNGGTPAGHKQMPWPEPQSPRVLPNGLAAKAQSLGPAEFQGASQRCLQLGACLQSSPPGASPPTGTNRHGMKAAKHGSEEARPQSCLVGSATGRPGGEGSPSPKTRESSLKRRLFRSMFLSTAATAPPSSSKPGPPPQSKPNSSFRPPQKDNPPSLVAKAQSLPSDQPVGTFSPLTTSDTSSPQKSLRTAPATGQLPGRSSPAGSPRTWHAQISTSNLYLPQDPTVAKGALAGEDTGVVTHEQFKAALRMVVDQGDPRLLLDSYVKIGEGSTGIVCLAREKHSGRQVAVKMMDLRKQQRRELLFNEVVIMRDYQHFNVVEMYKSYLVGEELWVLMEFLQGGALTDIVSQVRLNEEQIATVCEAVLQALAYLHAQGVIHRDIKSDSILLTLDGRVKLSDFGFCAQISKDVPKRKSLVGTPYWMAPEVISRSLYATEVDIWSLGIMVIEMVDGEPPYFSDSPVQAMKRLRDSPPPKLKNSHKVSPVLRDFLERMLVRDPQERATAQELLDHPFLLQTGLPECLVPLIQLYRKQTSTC
T9 sequence (P10721 26-976 V559D/V654A): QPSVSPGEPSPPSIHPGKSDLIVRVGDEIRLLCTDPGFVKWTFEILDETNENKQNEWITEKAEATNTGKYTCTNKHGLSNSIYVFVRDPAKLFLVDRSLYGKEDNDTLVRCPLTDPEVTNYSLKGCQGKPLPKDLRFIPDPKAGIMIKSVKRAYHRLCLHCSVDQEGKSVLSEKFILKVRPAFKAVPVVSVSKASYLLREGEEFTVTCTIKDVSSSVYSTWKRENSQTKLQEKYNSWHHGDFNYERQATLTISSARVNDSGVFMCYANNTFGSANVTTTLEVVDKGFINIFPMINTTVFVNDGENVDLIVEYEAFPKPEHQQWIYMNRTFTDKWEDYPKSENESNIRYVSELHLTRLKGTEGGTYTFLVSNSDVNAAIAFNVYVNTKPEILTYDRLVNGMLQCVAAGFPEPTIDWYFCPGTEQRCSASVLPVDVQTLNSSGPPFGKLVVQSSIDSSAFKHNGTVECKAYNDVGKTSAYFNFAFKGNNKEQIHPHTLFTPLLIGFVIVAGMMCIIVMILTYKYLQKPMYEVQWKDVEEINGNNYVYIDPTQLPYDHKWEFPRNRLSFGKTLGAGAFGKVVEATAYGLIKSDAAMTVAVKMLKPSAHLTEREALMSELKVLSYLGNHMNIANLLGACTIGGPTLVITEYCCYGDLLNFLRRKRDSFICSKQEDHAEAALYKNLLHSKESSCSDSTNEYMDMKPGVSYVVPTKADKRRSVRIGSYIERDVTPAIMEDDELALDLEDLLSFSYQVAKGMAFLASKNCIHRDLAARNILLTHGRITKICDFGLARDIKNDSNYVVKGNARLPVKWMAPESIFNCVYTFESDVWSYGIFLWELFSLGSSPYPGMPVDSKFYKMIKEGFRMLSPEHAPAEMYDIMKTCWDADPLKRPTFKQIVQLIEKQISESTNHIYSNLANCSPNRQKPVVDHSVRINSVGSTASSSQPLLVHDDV
T17 sequence (Q16288 32-839): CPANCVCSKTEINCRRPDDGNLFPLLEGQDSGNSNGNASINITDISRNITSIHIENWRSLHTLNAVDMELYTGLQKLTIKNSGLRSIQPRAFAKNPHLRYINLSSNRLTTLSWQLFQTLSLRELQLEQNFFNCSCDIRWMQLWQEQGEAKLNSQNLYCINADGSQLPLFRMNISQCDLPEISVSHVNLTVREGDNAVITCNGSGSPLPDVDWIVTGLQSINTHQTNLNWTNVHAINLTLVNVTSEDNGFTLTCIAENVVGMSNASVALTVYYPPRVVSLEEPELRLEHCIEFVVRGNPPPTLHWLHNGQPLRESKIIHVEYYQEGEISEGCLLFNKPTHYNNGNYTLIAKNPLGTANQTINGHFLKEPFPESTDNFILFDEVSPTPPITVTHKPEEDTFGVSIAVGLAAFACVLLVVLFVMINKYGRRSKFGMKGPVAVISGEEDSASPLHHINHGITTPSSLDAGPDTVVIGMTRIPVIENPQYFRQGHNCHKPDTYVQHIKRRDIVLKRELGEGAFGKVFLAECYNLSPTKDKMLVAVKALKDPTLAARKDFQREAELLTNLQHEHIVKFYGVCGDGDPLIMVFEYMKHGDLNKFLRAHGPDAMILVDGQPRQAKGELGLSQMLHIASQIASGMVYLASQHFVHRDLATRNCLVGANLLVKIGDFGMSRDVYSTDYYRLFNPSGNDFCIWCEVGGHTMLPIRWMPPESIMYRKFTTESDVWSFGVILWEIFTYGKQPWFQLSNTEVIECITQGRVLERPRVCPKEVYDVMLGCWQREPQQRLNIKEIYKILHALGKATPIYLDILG
T7 sequence (P10721 26-976 L576P): as the sequence (P10721 26-976 V559D/V654A) above, with D534V, L551P, A629V counted along it
T16 sequence (Q16620 32-822): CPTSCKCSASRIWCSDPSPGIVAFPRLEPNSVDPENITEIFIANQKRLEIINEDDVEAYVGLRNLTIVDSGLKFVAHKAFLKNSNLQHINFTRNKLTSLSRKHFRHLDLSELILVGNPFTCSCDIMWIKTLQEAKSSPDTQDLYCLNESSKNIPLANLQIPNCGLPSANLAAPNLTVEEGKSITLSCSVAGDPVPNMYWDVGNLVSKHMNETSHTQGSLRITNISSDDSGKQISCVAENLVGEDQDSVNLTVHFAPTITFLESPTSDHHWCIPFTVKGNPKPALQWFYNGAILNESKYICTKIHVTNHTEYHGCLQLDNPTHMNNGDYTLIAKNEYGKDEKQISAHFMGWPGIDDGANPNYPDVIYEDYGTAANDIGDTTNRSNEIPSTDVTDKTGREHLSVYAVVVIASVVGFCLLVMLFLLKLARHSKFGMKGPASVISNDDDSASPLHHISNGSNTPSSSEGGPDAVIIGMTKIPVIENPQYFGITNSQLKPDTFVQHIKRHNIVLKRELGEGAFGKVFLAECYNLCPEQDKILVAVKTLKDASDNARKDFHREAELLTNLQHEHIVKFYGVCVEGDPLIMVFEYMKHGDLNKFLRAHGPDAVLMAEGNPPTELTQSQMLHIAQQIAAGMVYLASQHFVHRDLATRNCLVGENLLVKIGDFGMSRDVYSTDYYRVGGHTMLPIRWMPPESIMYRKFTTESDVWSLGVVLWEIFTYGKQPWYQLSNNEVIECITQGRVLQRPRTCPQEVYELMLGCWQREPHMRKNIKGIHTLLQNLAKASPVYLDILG
T10 sequence (O96013 whole entry): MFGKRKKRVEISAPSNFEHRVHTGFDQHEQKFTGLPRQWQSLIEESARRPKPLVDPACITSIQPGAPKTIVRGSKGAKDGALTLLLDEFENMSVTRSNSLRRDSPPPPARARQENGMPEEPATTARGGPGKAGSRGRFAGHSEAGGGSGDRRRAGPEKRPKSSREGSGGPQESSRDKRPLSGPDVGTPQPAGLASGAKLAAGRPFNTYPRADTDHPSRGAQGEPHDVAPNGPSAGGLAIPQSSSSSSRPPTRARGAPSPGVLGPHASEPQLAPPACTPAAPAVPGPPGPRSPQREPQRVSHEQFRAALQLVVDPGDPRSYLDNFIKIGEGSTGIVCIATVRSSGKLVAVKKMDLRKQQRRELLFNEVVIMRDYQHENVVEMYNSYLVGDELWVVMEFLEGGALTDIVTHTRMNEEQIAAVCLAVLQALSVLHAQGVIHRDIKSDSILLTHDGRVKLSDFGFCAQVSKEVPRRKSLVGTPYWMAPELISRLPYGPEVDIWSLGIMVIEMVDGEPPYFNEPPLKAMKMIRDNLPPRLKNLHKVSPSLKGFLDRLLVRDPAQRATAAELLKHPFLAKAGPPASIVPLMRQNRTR
T13 sequence (Q9P1W9 whole entry): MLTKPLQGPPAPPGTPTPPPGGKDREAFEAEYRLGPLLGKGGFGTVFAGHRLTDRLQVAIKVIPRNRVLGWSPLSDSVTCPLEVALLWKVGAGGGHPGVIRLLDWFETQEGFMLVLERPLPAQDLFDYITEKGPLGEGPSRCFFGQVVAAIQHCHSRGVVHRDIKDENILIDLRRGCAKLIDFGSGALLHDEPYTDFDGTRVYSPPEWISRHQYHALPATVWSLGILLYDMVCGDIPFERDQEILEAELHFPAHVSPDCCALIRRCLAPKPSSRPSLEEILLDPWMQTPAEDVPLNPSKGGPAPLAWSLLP
T12 sequence (P11309 whole entry): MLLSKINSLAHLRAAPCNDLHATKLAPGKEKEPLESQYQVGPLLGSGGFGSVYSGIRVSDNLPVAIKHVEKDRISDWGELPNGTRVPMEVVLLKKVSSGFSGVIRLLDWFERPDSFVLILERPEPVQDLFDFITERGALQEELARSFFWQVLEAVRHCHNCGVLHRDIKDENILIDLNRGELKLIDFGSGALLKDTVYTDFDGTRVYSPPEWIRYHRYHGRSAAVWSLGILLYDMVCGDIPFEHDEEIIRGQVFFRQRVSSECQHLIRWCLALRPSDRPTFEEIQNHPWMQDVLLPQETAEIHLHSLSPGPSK
T8 sequence (P10721 26-976 V559D): as the sequence (P10721 26-976 V559D/V654A) above, with A629V counted along it

remaining binding at 1 µM [1]: < 10%
remaining binding at 1 µM [2]: < 10%
remaining binding at 1 µM (CDK2): < 10%
remaining binding at 1 µM (CDK3): < 10%
remaining binding at 1 µM (CDK7): < 10%
remaining binding at 1 µM (HIPK1): < 10%
remaining binding at 1 µM (KIT(L576P)): < 10%
remaining binding at 1 µM (KIT(V559D)): < 10%
remaining binding at 1 µM (KIT(V559D, V654A)): < 10%
remaining binding at 1 µM (PAK4): < 10%
remaining binding at 1 µM (PAK6): < 10%
remaining binding at 1 µM (PIM1): < 10%
remaining binding at 1 µM (PIM2): < 10%
remaining binding at 1 µM (RET): < 10%
remaining binding at 1 µM (RET(M918T)): < 10%
remaining binding at 1 µM (TRKB): < 10%
remaining binding at 1 µM (TRKC): < 10%
Compound: COc1ccc2nc(-c3n[nH]c4ccc(C(=O)N[C@H]5CC[C@H](N)C5)cc34)[nH]c2c1 [Example 32, N-((1S,3S)-3-aminocyclopentyl)-3-(6-methoxy-1H-benzo[d]imidazol-2-yl)-1H-indazole-5-carboxamide]
